Assay results as given in ChEMBL document CHEMBL1201862, “PubChem BioAssay data set” (2004).
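Exposure lasted 48 hours, with cells grown in 96-well plates and compounds tested at five concentrations. The concentration for 50% growth inhibition is given as GI50.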 The source made the active and inactive calls. No stated cut-off is given here; in the data, active = GI50 up to about 1.1 µM and inactive = higher.

Columns and labels:
Assay in all cases: NCI anticancer screen, dose series, 48 h
TK-10 = test system: TK-10
IGROV-1 = test system: IGROV-1
BT-549 = test system: BT-549
SF-295 = test system: SF-295
SK-MEL-5 = test system: SK-MEL-5
KM12 = test system: KM12
SW-620 = test system: SW-620
UACC-257 = test system: UACC-257
HOP-92 = test system: HOP-92
Malme-3M = test system: Malme-3M
MDA-MB-435 = test system: MDA-MB-435
SN12C = test system: SN12C
SR = test system: SR
OVCAR-5 = test system: OVCAR-5
CCRF-CEM = test system: CCRF-CEM
T47D = test system: T47D
HCC 2998 = test system: HCC 2998
K562 = test system: K562
NCI-H460 = test system: NCI-H460
DU-145 = test system: DU-145

Q: `Cc1ccc(-c2cn3c(nc4ccccc43)c(C)n2)cc1` was tested. Which GI50 (TK-10) did it give?
A: 43.9 µM (inactive)

Q: And the GI50 (IGROV-1)?
A: 11.7 µM (inactive)

Q: And the GI50 (BT-549)?
A: 25.9 µM (inactive)

Q: What about the GI50 (SF-295) of the same compound?
A: > 58.1 µM (inactive)

Q: And the GI50 (SK-MEL-5)?
A: 10.7 µM (inactive)

Q: And the GI50 (KM12)?
A: > 100 µM (inactive)

Q: And the GI50 (SW-620)?
A: > 100 µM (inactive)

Q: And the GI50 (UACC-257)?
A: > 100 µM (inactive)

Q: What about the GI50 (HOP-92) of the same compound?
A: 8.93 µM (inactive)

Q: What about the GI50 (Malme-3M) of the same compound?
A: 37.6 µM (inactive)

Q: And the GI50 (MDA-MB-435)?
A: 16 µM (inactive)

Q: And the GI50 (SN12C)?
A: 55.6 µM (inactive)

Q: What about the GI50 (SR) of the same compound?
A: 21.5 µM (inactive)

Q: What about the GI50 (OVCAR-5) of the same compound?
A: 51.6 µM (inactive)

Q: And the GI50 (CCRF-CEM)?
A: 85.3 µM (inactive)

Q: And the GI50 (T47D)?
A: 4.2 µM (inactive)

Q: What about the GI50 (HCC 2998) of the same compound?
A: > 100 µM (inactive)

Q: And the GI50 (K562)?
A: 43.5 µM (inactive)

Q: And the GI50 (NCI-H460)?
A: 26.7 µM (inactive)

Q: What about the GI50 (DU-145) of the same compound?
A: 46.5 µM (inactive)

Q: For `CN1CCN(c2cc3nc4cc(O)cc(O)c4c(O)c3cc2N)CC1`, which GI50 (TK-10) is on record?
A: 30.7 µM (inactive)

Q: And the GI50 (IGROV-1)?
A: 20.2 µM (inactive)

Q: And the GI50 (BT-549)?
A: 28.6 µM (inactive)

Q: And the GI50 (SF-295)?
A: 32.7 µM (inactive)

Q: And the GI50 (SK-MEL-5)?
A: 18.5 µM (inactive)

Q: What about the GI50 (KM12) of the same compound?
A: 27.4 µM (inactive)

Q: What about the GI50 (SW-620) of the same compound?
A: 21.9 µM (inactive)

Q: What about the GI50 (UACC-257) of the same compound?
A: 38.8 µM (inactive)

Q: What about the GI50 (HOP-92) of the same compound?
A: 10.6 µM (inactive)

Q: And the GI50 (Malme-3M)?
A: 24.6 µM (inactive)

Q: What about the GI50 (MDA-MB-435) of the same compound?
A: 18.1 µM (inactive)

Q: And the GI50 (SN12C)?
A: 1.5 µM (inactive)

Q: And the GI50 (SR)?
A: 6.14 µM (inactive)

Q: What about the GI50 (OVCAR-5) of the same compound?
A: 23.9 µM (inactive)

Q: And the GI50 (CCRF-CEM)?
A: 13.4 µM (inactive)

Q: What about the GI50 (T47D) of the same compound?
A: 21.6 µM (inactive)

Q: What about the GI50 (HCC 2998) of the same compound?
A: 16.2 µM (inactive)

Q: What about the GI50 (K562) of the same compound?
A: 14.5 µM (inactive)

Q: And the GI50 (NCI-H460)?
A: 36.3 µM (inactive)

Q: And the GI50 (DU-145)?
A: 46.5 µM (inactive)

Q: What does the source list for `O=c1[nH]nc(Cc2ccccc2)n1/N=C/c1ccncc1`?
A: GI50 (TK-10): > 100 µM (inactive); GI50 (IGROV-1): > 100 µM (inactive); GI50 (BT-549): 68.9 µM (inactive); GI50 (SF-295): > 100 µM (inactive); GI50 (SK-MEL-5): 64.4 µM (inactive); GI50 (KM12): > 100 µM (inactive); GI50 (SW-620): > 100 µM (inactive); GI50 (UACC-257): > 100 µM (inactive); GI50 (HOP-92): > 100 µM (inactive); GI50 (Malme-3M): > 100 µM (inactive); GI50 (MDA-MB-435): > 100 µM (inactive); GI50 (SN12C): > 100 µM (inactive); GI50 (SR): > 100 µM (inactive); GI50 (OVCAR-5): > 100 µM (inactive); GI50 (CCRF-CEM): > 100 µM (inactive); GI50 (T47D): > 100 µM (inactive); GI50 (HCC 2998): > 100 µM (inactive); GI50 (K562): > 100 µM (inactive); GI50 (NCI-H460): > 100 µM (inactive); GI50 (DU-145): > 100 µM (inactive)

Q: `NC1=Nc2ncccc2C(=O)NN1` was tested. Which GI50 (TK-10) did it give?
A: > 10 µM (inactive)

Q: What about the GI50 (IGROV-1) of the same compound?
A: > 10 µM (inactive)

Q: And the GI50 (BT-549)?
A: > 10 µM (inactive)

Q: And the GI50 (SF-295)?
A: > 10 µM (inactive)

Q: What about the GI50 (SK-MEL-5) of the same compound?
A: > 10 µM (inactive)

Q: What about the GI50 (KM12) of the same compound?
A: > 10 µM (inactive)

Q: And the GI50 (SW-620)?
A: > 10 µM (inactive)

Q: What about the GI50 (UACC-257) of the same compound?
A: > 10 µM (inactive)

Q: And the GI50 (HOP-92)?
A: > 10 µM (inactive)

Q: What about the GI50 (Malme-3M) of the same compound?
A: > 10 µM (inactive)

Q: And the GI50 (MDA-MB-435)?
A: > 10 µM (inactive)

Q: What about the GI50 (SN12C) of the same compound?
A: > 10 µM (inactive)

Q: What about the GI50 (SR) of the same compound?
A: > 10 µM (inactive)

Q: And the GI50 (OVCAR-5)?
A: > 10 µM (inactive)

Q: What about the GI50 (CCRF-CEM) of the same compound?
A: > 10 µM (inactive)

Q: And the GI50 (T47D)?
A: > 10 µM (inactive)

Q: What about the GI50 (HCC 2998) of the same compound?
A: 8.89 µM (inactive)

Q: What about the GI50 (K562) of the same compound?
A: > 10 µM (inactive)

Q: And the GI50 (NCI-H460)?
A: > 10 µM (inactive)

Q: What about the GI50 (DU-145) of the same compound?
A: > 10 µM (inactive)

Q: Which results are given for `COc1cc(/C=C2\C[C@H]3[C@@H]4CCC5=CC(=O)CC[C@]5(C)[C@H]4CC[C@]3(C)C2=O)cc(OC)c1OC`?
A: GI50 (TK-10): 19.8 µM (inactive); GI50 (IGROV-1): 8.99 µM (inactive); GI50 (BT-549): 3.29 µM (inactive); GI50 (SF-295): 5.93 µM (inactive); GI50 (SK-MEL-5): 3.07 µM (inactive); GI50 (KM12): 3.58 µM (inactive); GI50 (SW-620): 8.61 µM (inactive); GI50 (UACC-257): 6.07 µM (inactive); GI50 (HOP-92): 13.1 µM (inactive); GI50 (Malme-3M): 11.4 µM (inactive); GI50 (MDA-MB-435): 3.36 µM (inactive); GI50 (SN12C): 6.4 µM (inactive); GI50 (SR): 3.04 µM (inactive); GI50 (OVCAR-5): 33.1 µM (inactive); GI50 (CCRF-CEM): 4.76 µM (inactive); GI50 (T47D): 2.04 µM (inactive); GI50 (HCC 2998): 15 µM (inactive); GI50 (K562): 3.82 µM (inactive); GI50 (NCI-H460): 6.35 µM (inactive); GI50 (DU-145): 19.5 µM (inactive)

Q: Which results are given for `COC(=O)C12CCC(C(=O)OC)(Cc3c(c4ccccc4n3S(=O)(=O)c3ccccc3)C1)C2=O` (stereo not given)?
A: GI50 (TK-10): > 56.2 µM (inactive); GI50 (IGROV-1): > 26.7 µM (inactive); GI50 (BT-549): > 100 µM (inactive); GI50 (SF-295): > 51.1 µM (inactive); GI50 (SK-MEL-5): 9.29 µM (inactive); GI50 (KM12): > 100 µM (inactive); GI50 (SW-620): > 100 µM (inactive); GI50 (UACC-257): > 64.1 µM (inactive); GI50 (HOP-92): 1 µM (active); GI50 (Malme-3M): 36.1 µM (inactive); GI50 (MDA-MB-435): > 100 µM (inactive); GI50 (SN12C): > 100 µM (inactive); GI50 (SR): > 100 µM (inactive); GI50 (OVCAR-5): > 32.2 µM (inactive); GI50 (CCRF-CEM): 1 µM (active); GI50 (T47D): > 100 µM (inactive); GI50 (HCC 2998): > 76.9 µM (inactive); GI50 (K562): 62.1 µM (inactive); GI50 (NCI-H460): > 67 µM (inactive); GI50 (DU-145): > 100 µM (inactive)

Q: Which results are given for `Cc1nc(-c2ccccc2)cn2c1nc1ccccc12`?
A: GI50 (TK-10): 29.3 µM (inactive); GI50 (IGROV-1): 19.9 µM (inactive); GI50 (BT-549): 17.4 µM (inactive); GI50 (SF-295): 23.9 µM (inactive); GI50 (SK-MEL-5): 13.9 µM (inactive); GI50 (KM12): 20.8 µM (inactive); GI50 (SW-620): 27.7 µM (inactive); GI50 (UACC-257): 29 µM (inactive); GI50 (HOP-92): 21 µM (inactive); GI50 (Malme-3M): 23.9 µM (inactive); GI50 (MDA-MB-435): 19.2 µM (inactive); GI50 (SN12C): 29.7 µM (inactive); GI50 (SR): 27.2 µM (inactive); GI50 (OVCAR-5): > 31.6 µM (inactive); GI50 (CCRF-CEM): > 58.7 µM (inactive); GI50 (T47D): 2.05 µM (inactive); GI50 (HCC 2998): 51.4 µM (inactive); GI50 (K562): > 61.7 µM (inactive); GI50 (NCI-H460): 17.7 µM (inactive); GI50 (DU-145): 31.8 µM (inactive)
